From patent US4590161A, “Microbiologically produced L-phenylalanine-dehydrogenase, process for its recovery and use” (priority 1983, dated 1986)

Tests used:
[1] = test system: L-phenylalanine-dehydrogenase; assay: Photometric test of reductive amination (decrease of NADH at 340 nm); details: purified PheDH (0.055 mg protein/ml), pH 8.5, 0.2 mM NADH, 0.7M ammonium chloride
Protocol: The enzyme activity is determined with a photometric test, by measuring the decrease of the adsorption of NADH at 340 nm. […] The reaction rate of the catalyzed reaction is measured in relation of pH. […] If the substrate concentration of the aromatic α-ketocarboxylic acids or of the aromatic L-aminocarboxylic acids is small compared to their Km value then the reaction rate depends linearly on the substrate concentration.
The relationship of the speed of reaction of the reductive amination of phenyl pyruvate to L-phenylalanine for the substrate NADH was investigated in the following test mixture:
The dependency of the speed of reaction of the reductive amination of phenyl pyruvate to L-phenylalanine on the ammonium ion concentration was investigated in the following test mixture.

[2] = test system: L-phenylalanine-dehydrogenase; assay: Batch reductive amination of α-ketocarboxylic acids with NADH regeneration by formate-dehydrogenase, product on aminoacid analyzer; assay type: biochemical, Brevibacterium species DSM 2448
Protocol: In order to regenerate the NADH consumed in the reductive amination there was added to the reaction mixture an excess of ammonium formate and the enzyme formate-dehydrogenase (E.C. 1.2.1.2) which in the oxidation of formate to CO2 reduces the cosubstrate NAD^+ to NADH.
The test mixture contained thereby uniformly 400 mM of ammonium formate (pH 8.5), 0.3 mM NADH, 0.6 U/ml formate-dehydrogenase (prepared according to Kroner et al (1982), J. Chem. Tech. Biotechnol, Volume 32, pages 130 to 137), 0.5 U/ml L-phenylalanine-dehydrogenase, 25 mM α-ketocarboxylic acid. The total volume was 3 ml. The incubation was carried out with stirring at 27° C. The product formation in each case was followed on the aminoacid analyzer.

[3] = test system: L-phenylalanine-dehydrogenase; assay: Continuous production of L-phenylalanine in enzyme membrane reactor with PEG-NADH; assay type: biochemical, Brevibacterium species DSM 2448; details: over 110 hours, residence time 2.5 hours, 20 mM phenyl pyruvate
Description: It is possible to continuously synthesize phenalyalanine from phenyl pyruvate in an enzyme membrane reactor using molecular weight enlarged NADH bound to polyethylene glycoe (PEG). The PEG-NADH was produced according to German Pat. No. 2,841,414. The modified coenzyme and the enzyme formate-dehydrogenase employed and L-phenylalanine-dehydrogenase were retained in the reactor by an ultrafiltration membrane YM5 (product of the Amicon Company, Witten) while the lower molecular weight components of the reaction solution, unreacted substrate and the L-phenylalanine formed were continuously removed from the reactor. The reactor volume was held constant while phenyl pyruvate and ammonium formate were metered in from a reservoir to the same extent that the ultrafiltrate left the reactor. The reactor volume was 10 ml, the concentration of PEG-NADH 0.3 mM. There were injected into the reactor 20 units of formate-dehydrogenaseand 20 units of L-phenylalanine-dehydrogenase. […]
The reaction solution was continuously circulated over the membrane at 30 ml/hour with a peristaltic pump. […] The ultrafiltrate was collected in fractions and the content of L-phenylalanine determined on the aminoacid analyzer. Over a time span of 110 hours on the average 70% of the phenyl pyruvate was converted to L-phenylalanine, in the combined ultrafiltrates there were measured 6.9 mmoles (1.14 grams) of L-phenylalanine. […]

[4] = 25 mM α-ketocarboxylic acid, 0.5 U/ml enzyme, 27° C., 2 hours
[5] = 25 mM α-ketocarboxylic acid, 0.5 U/ml enzyme, 27° C., 6 hours

O=C(O)C(=O)Cc1ccccc1 [Phenylpyruvate, Phenyl pyruvic acid]
Km [1]: 110 µM | Vmax [1]: 1.82 U/ml | Product Formation after 2 hours, % [2, 4]: 50% | Product Formation after 2 hours, mM [2, 4]: 12,5 mM | Product Formation after 6 hours, % [2, 5]: 66% | Product Formation after 6 hours, mM [2, 5]: 16,6 mM | Utilization as a substrate ([2]; result in words): converted well | phenyl pyruvate converted to L-phenylalanine, on the average [3]: 70%
